Experimental data reported in ChEMBL document CHEMBL1201862, “PubChem BioAssay data set” (2004).
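1) Cells in 96-well plates. 2) Compound, 48 h, 5 concentrations. 3) Linear interpolation between surrounding doses. 4) Unreached endpoint = highest concentration. Here, GI50 denotes the concentration required for 50% inhibition of growth.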 Activity calls are given as the source filed them. No stated cut-off is given here; in the data, active = GI50 up to about 1.1 µM and inactive = higher.

Key:
Assay in all cases: NCI-60 cell line screen, 48 h
U-251 = test system: U-251
OVCAR-3 = test system: OVCAR-3
A498 = test system: A498
OVCAR-8 = test system: OVCAR-8
RPMI-8226 = test system: RPMI-8226
M14 = test system: M14
EKVX = test system: EKVX
IGROV-1 = test system: IGROV-1
MDA-N = test system: MDA-N
SW-620 = test system: SW-620
HCC 2998 = test system: HCC 2998
SF-268 = test system: SF-268
SN12C = test system: SN12C
T47D = test system: T47D
PC-3 = test system: PC-3
NCI-H23 = test system: NCI-H23
SF-295 = test system: SF-295
NCI-H522 = test system: NCI-H522
Hs-578T = test system: Hs-578T
TK-10 = test system: TK-10

SMILES	GI50 (U-251)	GI50 (OVCAR-3)	GI50 (A498)	GI50 (OVCAR-8)	GI50 (RPMI-8226)	GI50 (M14)	GI50 (EKVX)	GI50 (IGROV-1)	GI50 (MDA-N)	GI50 (SW-620)	GI50 (HCC 2998)	GI50 (SF-268)	GI50 (SN12C)	GI50 (T47D)	GI50 (PC-3)	GI50 (NCI-H23)	GI50 (SF-295)	GI50 (NCI-H522)	GI50 (Hs-578T)	GI50 (TK-10)
CO[C@H]1[C@@H](O)[C@@H](O)O[C@@H](O[C@H]2CC[C@@]3(C)[C@H](CC[C@@H]4[C@@H]3[C@H](O)C[C@]3(C)[C@@H](C5=CC(=O)OC5)CC[C@]43O)C2)[C@@H]1O	0.305 µM (active)	0.112 µM (active)	0.184 µM (active)	0.33 µM (active)	0.198 µM (active)	0.283 µM (active)	0.151 µM (active)	0.301 µM (active)	0.243 µM (active)	0.257 µM (active)	1.67 µM (inactive)	0.11 µM (active)	0.064 µM (active)	0.362 µM (active)	0.283 µM (active)	0.113 µM (active)	0.141 µM (active)	0.0239 µM (active)	0.407 µM (active)	0.187 µM (active)
O=c1c2cc([N+](=O)[O-])ccc2n2n1Cc1ccccc1C2	> 100 µM (inactive)	> 100 µM (inactive)	63.8 µM (inactive)	> 100 µM (inactive)	> 100 µM (inactive)		31.5 µM (inactive)	> 100 µM (inactive)	> 100 µM (inactive)	> 100 µM (inactive)	> 100 µM (inactive)	> 100 µM (inactive)	> 100 µM (inactive)	65.5 µM (inactive)	32.4 µM (inactive)	> 100 µM (inactive)	> 100 µM (inactive)	64.6 µM (inactive)	43.4 µM (inactive)	> 100 µM (inactive)
CN(C)c1ccc(C2CC(c3ccc4ccccc4c3O)=NN2)cc1 (stereo not drawn)	33.6 µM (inactive)	18 µM (inactive)	22.4 µM (inactive)	32.4 µM (inactive)	29.6 µM (inactive)	31.8 µM (inactive)		24.9 µM (inactive)	26.5 µM (inactive)	32.9 µM (inactive)	69.7 µM (inactive)	32.5 µM (inactive)	33.2 µM (inactive)	38.8 µM (inactive)	32 µM (inactive)	34.5 µM (inactive)	31.6 µM (inactive)	22.2 µM (inactive)	37.4 µM (inactive)	56.4 µM (inactive)
COc1cc(S(=O)(=O)Nc2nc(-c3ccc(N4C(=O)C(CC(=O)O)SC4c4ccccc4O)cc3)cs2)ccc1Cl (stereo not drawn)	45.8 µM (inactive)	55.7 µM (inactive)	29.1 µM (inactive)	62.8 µM (inactive)		> 100 µM (inactive)		34.9 µM (inactive)	> 100 µM (inactive)	> 100 µM (inactive)	9.93 µM (inactive)	> 100 µM (inactive)	> 100 µM (inactive)	28.1 µM (inactive)	59.4 µM (inactive)	22.1 µM (inactive)	51.2 µM (inactive)	85.3 µM (inactive)	> 100 µM (inactive)	> 100 µM (inactive)
CNc1ccc(C(=O)CC(O)CCC(C)C2OC(=O)CC(O)CC(=O)CC(O)CC(O)CC(O)CC(O)CC3(O)CC(O)C(C(=O)NCCN(C)C)C(CC(OC4OC(C)C(O)C(NC(=O)CN5CCN(C)CC5)C4O)\C=C/C=C\C=C/C=C/C=C/C=C\C=C/C2C)O3)cc1 (stereo not drawn)	4.86 µM (inactive)		2.56 µM (inactive)	13.9 µM (inactive)		30.8 µM (inactive)		7.67 µM (inactive)	6.46 µM (inactive)	3.66 µM (inactive)	2.55 µM (inactive)	6.64 µM (inactive)	3.21 µM (inactive)	51.4 µM (inactive)	> 100 µM (inactive)	4.54 µM (inactive)	25.2 µM (inactive)	2.65 µM (inactive)	1.91 µM (inactive)	22.5 µM (inactive)
COc1ccc(CNc2nc(NCc3ccc(OC)cc3)nc(NC3CCCCC3)n2)cc1	3.03 µM (inactive)	2.2 µM (inactive)	48.6 µM (inactive)	2.6 µM (inactive)	3.21 µM (inactive)	2.15 µM (inactive)	2.57 µM (inactive)	2.09 µM (inactive)	0.65 µM (active)	3.56 µM (inactive)	1.11 µM (active)	2.24 µM (inactive)	3.07 µM (inactive)	3.51 µM (inactive)	3.21 µM (inactive)		1.34 µM (inactive)	1.21 µM (inactive)	1.77 µM (inactive)	0.975 µM (active)
c1ccc(Nc2nn3c(CCCCCCCCc4nnc5sc(Nc6ccccc6)nn45)nnc3s2)cc1	35.2 µM (inactive)	23.6 µM (inactive)	36.2 µM (inactive)	22 µM (inactive)	22.3 µM (inactive)	16.5 µM (inactive)	23.3 µM (inactive)		18.4 µM (inactive)	29.2 µM (inactive)	60.8 µM (inactive)	43 µM (inactive)	49.1 µM (inactive)	13.2 µM (inactive)	31 µM (inactive)	21.3 µM (inactive)	24.4 µM (inactive)	20.2 µM (inactive)	31.2 µM (inactive)	28.1 µM (inactive)
c1cc(C[S+]2CCCC2)oc1C[S+]1CCCC1	> 100 µM (inactive)	> 100 µM (inactive)	53.6 µM (inactive)	> 100 µM (inactive)		> 100 µM (inactive)	> 100 µM (inactive)	> 100 µM (inactive)	> 100 µM (inactive)	> 100 µM (inactive)	> 100 µM (inactive)	> 100 µM (inactive)	> 100 µM (inactive)	> 100 µM (inactive)	> 100 µM (inactive)	> 100 µM (inactive)	> 100 µM (inactive)	> 100 µM (inactive)	> 100 µM (inactive)	> 100 µM (inactive)
COC(=O)[C@H]1[C@H](OC(=O)[C@@H](OC)c2ccccc2)ON2CC[C@@H](OC(=O)c3ccccc3)[C@H]12	70.1 µM (inactive)		9.38 µM (inactive)	61.4 µM (inactive)	> 100 µM (inactive)	> 100 µM (inactive)	> 100 µM (inactive)	49.9 µM (inactive)	> 100 µM (inactive)		> 100 µM (inactive)	54.3 µM (inactive)	78 µM (inactive)	91.2 µM (inactive)	> 100 µM (inactive)	> 100 µM (inactive)	39.4 µM (inactive)	2.65 µM (inactive)	57.9 µM (inactive)	> 100 µM (inactive)
CC(=O)Nc1ccc2oc(=O)c3ccccc3c2c1	> 100 µM (inactive)	> 100 µM (inactive)	> 100 µM (inactive)	> 100 µM (inactive)	> 100 µM (inactive)	> 100 µM (inactive)	> 100 µM (inactive)	> 100 µM (inactive)	> 100 µM (inactive)	> 100 µM (inactive)	> 100 µM (inactive)	> 100 µM (inactive)	> 100 µM (inactive)	> 100 µM (inactive)	> 100 µM (inactive)	> 100 µM (inactive)	> 100 µM (inactive)	> 100 µM (inactive)	> 100 µM (inactive)	
O=C1OC(C2=CC(=O)c3ccccc3C2=O)C(Cl)=C1Cl (stereo not drawn)	28.1 µM (inactive)	33.1 µM (inactive)	42.8 µM (inactive)	13.7 µM (inactive)	19.5 µM (inactive)	39.3 µM (inactive)	37.8 µM (inactive)		39.5 µM (inactive)	35.2 µM (inactive)	25.1 µM (inactive)	27.2 µM (inactive)	18.3 µM (inactive)	29.1 µM (inactive)	27.3 µM (inactive)	24.4 µM (inactive)	86.5 µM (inactive)	15.9 µM (inactive)	54.7 µM (inactive)	66.7 µM (inactive)
CN(C)c1ccc(C(Cc2ccccc2)C2NC(=S)NC2=O)cc1 (stereo not drawn)	> 94 µM (inactive)	> 100 µM (inactive)	> 100 µM (inactive)	> 100 µM (inactive)	97.7 µM (inactive)	> 100 µM (inactive)	> 100 µM (inactive)	> 100 µM (inactive)	> 100 µM (inactive)	> 100 µM (inactive)		> 100 µM (inactive)	> 100 µM (inactive)	> 100 µM (inactive)	> 100 µM (inactive)	> 100 µM (inactive)	> 95.7 µM (inactive)	> 100 µM (inactive)	91.8 µM (inactive)	> 100 µM (inactive)
[N-]=[N+]=CC(=O)CCC(N)C(=O)O (stereo not drawn)	1.55 µM (inactive)		24.8 µM (inactive)	2.02 µM (inactive)	3.54 µM (inactive)	1.33 µM (inactive)	4.83 µM (inactive)	1.92 µM (inactive)	1.32 µM (inactive)	2.31 µM (inactive)	1.67 µM (inactive)	1.25 µM (inactive)	2.77 µM (inactive)	18.7 µM (inactive)	0.741 µM (active)	4.42 µM (inactive)	1.28 µM (inactive)	3.01 µM (inactive)	62.2 µM (inactive)	2.07 µM (inactive)
Oc1nc2c(c(-c3ccccc3Cl)n1)COC/C2=C\c1ccccc1Cl	> 100 µM (inactive)	> 100 µM (inactive)	> 100 µM (inactive)	> 100 µM (inactive)	> 100 µM (inactive)	> 100 µM (inactive)	25.6 µM (inactive)	43.9 µM (inactive)	> 100 µM (inactive)	> 100 µM (inactive)	> 100 µM (inactive)	> 100 µM (inactive)	> 100 µM (inactive)	> 100 µM (inactive)	> 100 µM (inactive)	> 100 µM (inactive)	94.8 µM (inactive)		> 100 µM (inactive)	> 100 µM (inactive)
